Test results reported in PubChem BioAssay (NCI).
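The compound was tested at five concentrations on cells cultured in 96-well plates, with a 48-hour exposure period. Abbreviation: GI50, concentration required for 50% inhibition of growth. TGI is the concentration that stops growth completely.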

Assays:
Assay in all cases: DTP human tumour cell line panel, 48 h
[1] = test system: MALME-3M melanoma
[2] = test system: SNB-75 CNS
[3] = test system: KM12 colon
[4] = test system: IGROV1 ovarian
[5] = test system: HOP-92 NSCLC
[6] = test system: HL-60(TB) leukemia
[7] = test system: NCI-H23 lung
[8] = test system: UACC-62 melanoma
[9] = test system: K-562 leukemia
[10] = test system: ACHN renal
[11] = test system: HCT-116 colon
[12] = test system: MDA-N
[13] = test system: 786-0 renal
[14] = test system: CAKI-1 renal
[15] = test system: SW-620 colon
[16] = test system: SNB-19 CNS
[17] = test system: SK-OV-3 ovarian
[18] = test system: HCT-15 colon
[19] = test system: HS 578T breast
[20] = test system: HCC-2998 colon
[21] = test system: SF-295 CNS
[22] = test system: SK-MEL-28 melanoma
[23] = test system: COLO 205 colon
[24] = test system: HT29 colon
[25] = test system: NCI-H522 lung
[26] = test system: M14 melanoma
[27] = test system: EKVX NSCLC
[28] = test system: DU-145 prostate
[29] = test system: U251 CNS
[30] = test system: SK-MEL-5 melanoma
[31] = test system: SK-MEL-2 melanoma
[32] = test system: MCF7 breast
[33] = test system: OVCAR-4 ovarian
[34] = test system: SF-539 CNS
[35] = test system: OVCAR-3 ovarian
[36] = test system: TK-10 renal
[37] = test system: SF-268 CNS
[38] = test system: SR leukemia
[39] = test system: HOP-62 NSCLC
[40] = test system: SN12C renal
[41] = test system: LOX IMVI melanoma
[42] = test system: A498 renal
[43] = test system: NCI-H460 lung
[44] = test system: OVCAR-8 ovarian
[45] = test system: OVCAR-5 ovarian
[46] = test system: A549 NSCLC
[47] = test system: T-47D breast
[48] = test system: UACC-257 melanoma
[49] = test system: PC-3 prostate
[50] = test system: NCI/ADR-RES ovarian
[51] = test system: MDA-MB-435
[52] = test system: MDA-MB-231 breast
[53] = test system: CCRF-CEM leukemia
[54] = test system: MOLT-4 leukemia
[55] = test system: RPMI-8226 leukemia
[56] = test system: RXF 393 renal
[57] = test system: NCI-H226 lung
[58] = test system: BT-549 breast
[59] = test system: UO-31 renal

CC1(C)CS(=O)(=O)CC(C)(C)C(=N/N)/C1=N\N
TGI [1]: > 100 µM
TGI [2]: > 100 µM
TGI [3]: > 100 µM
TGI [4]: > 100 µM
TGI [5]: > 100 µM
TGI [6]: > 100 µM
TGI [7]: > 100 µM
TGI [8]: > 100 µM
TGI [9]: > 100 µM
TGI [10]: > 100 µM
TGI [11]: > 100 µM
TGI [12]: > 100 µM
TGI [13]: > 100 µM
TGI [14]: > 100 µM
TGI [15]: > 100 µM
TGI [16]: > 100 µM
TGI [17]: > 100 µM
TGI [18]: > 100 µM
TGI [19]: > 100 µM
TGI [20]: > 100 µM
TGI [21]: > 100 µM
TGI [22]: > 100 µM
TGI [23]: > 100 µM
TGI [24]: > 100 µM
TGI [25]: > 100 µM
TGI [26]: > 100 µM
TGI [27]: > 100 µM
TGI [28]: > 100 µM
TGI [29]: > 100 µM
TGI [30]: > 100 µM
TGI [31]: > 100 µM
TGI [32]: > 100 µM
TGI [33]: > 100 µM
TGI [34]: > 100 µM
TGI [35]: > 100 µM
TGI [36]: > 100 µM
TGI [37]: > 100 µM
TGI [38]: > 100 µM
TGI [39]: > 100 µM
TGI [40]: > 100 µM
TGI [41]: > 100 µM
TGI [42]: > 100 µM
TGI [43]: > 100 µM
TGI [44]: > 100 µM
TGI [45]: > 100 µM
TGI [46]: > 100 µM
TGI [47]: > 100 µM
TGI [48]: > 100 µM
TGI [49]: > 100 µM
TGI [50]: > 100 µM
TGI [51]: > 100 µM

CCCCCCCCCCCCCCCCCC(=O)OCC(COC1OC(COP(=O)(O)O)C(O)C(O)C1O)OC(=O)CCCCCCCCCCCCCCCCC (stereo unspecified)
TGI [1]: 14.2 µM
TGI [2]: 11.5 µM
TGI [52]: 9.24 µM
TGI [3]: 13 µM
TGI [4]: 10.5 µM
TGI [5]: 10.5 µM
TGI [6]: 21.1 µM
TGI [7]: 15 µM
TGI [8]: 16.3 µM
TGI [9]: 18.7 µM
TGI [10]: 12.7 µM
TGI [53]: 14.4 µM
TGI [11]: 16.2 µM
TGI [12]: 20.1 µM
TGI [54]: 17.3 µM
TGI [13]: 14.9 µM
TGI [14]: 16.9 µM
TGI [15]: 17.9 µM
TGI [55]: 23.1 µM
TGI [16]: 14.8 µM
TGI [17]: 15.4 µM
TGI [18]: 14.4 µM
TGI [19]: 17.4 µM
TGI [20]: 15.7 µM
TGI [21]: 10.6 µM
TGI [56]: 16.8 µM
TGI [22]: 18 µM
TGI [23]: 18.5 µM
TGI [24]: 11.7 µM
TGI [26]: 17.3 µM
TGI [27]: 16.4 µM
TGI [28]: 16.8 µM
TGI [29]: 14.7 µM
TGI [30]: 16.6 µM
TGI [32]: 17.1 µM
TGI [33]: 14.5 µM
TGI [34]: 18.1 µM
TGI [35]: 16 µM
TGI [36]: 17.6 µM
TGI [37]: 17 µM
TGI [57]: 13.3 µM
TGI [39]: 15.1 µM
TGI [40]: 14.1 µM
TGI [41]: 17.2 µM
TGI [42]: 12.5 µM
TGI [43]: 23.4 µM
TGI [44]: 17.8 µM
TGI [45]: 11.4 µM
TGI [46]: 16 µM
TGI [47]: 28.9 µM
TGI [48]: 16.6 µM
TGI [49]: 14.3 µM
TGI [50]: 18.2 µM
TGI [51]: 17.1 µM

CN(C)c1ccc(/C=C\c2cccc[n+]2C)cc1
GI50 [1]: 15.6 µM
TGI [1]: > 100 µM
GI50 [2]: 6.26 µM
TGI [2]: 49.5 µM
GI50 [52]: 13.7 µM
TGI [52]: 93.2 µM
GI50 [3]: 0.821 µM
TGI [3]: 13.4 µM
GI50 [4]: 8.66 µM
TGI [4]: > 100 µM
GI50 [5]: 4.85 µM
TGI [5]: 32.8 µM
GI50 [6]: 3.09 µM
TGI [6]: > 100 µM
GI50 [7]: 4.69 µM
TGI [7]: > 100 µM
GI50 [8]: 19.8 µM
TGI [8]: 58 µM
GI50 [9]: 2.22 µM
TGI [9]: > 100 µM
GI50 [10]: 43 µM
TGI [10]: > 100 µM
GI50 [53]: 4.54 µM
TGI [53]: > 100 µM
GI50 [11]: 4.16 µM
TGI [11]: > 100 µM
GI50 [54]: 38.4 µM
TGI [54]: > 100 µM
GI50 [13]: 16.3 µM
TGI [13]: > 100 µM
GI50 [14]: 3.8 µM
TGI [14]: > 100 µM
GI50 [15]: 3.57 µM
TGI [15]: > 100 µM
GI50 [55]: 4.44 µM
TGI [55]: 45.2 µM
GI50 [16]: 4.83 µM
TGI [16]: > 100 µM
GI50 [17]: 4.85 µM
TGI [17]: 52 µM
GI50 [18]: 92.8 µM
TGI [18]: > 100 µM
GI50 [19]: 16.2 µM
TGI [19]: > 100 µM
GI50 [20]: 3.68 µM
TGI [20]: 39.2 µM
GI50 [21]: 4.33 µM
TGI [21]: > 100 µM
GI50 [56]: 18.2 µM
TGI [56]: > 100 µM
GI50 [22]: 14.8 µM
TGI [22]: 81.7 µM
GI50 [58]: 2.76 µM
TGI [58]: 79.8 µM
GI50 [23]: 1.22 µM
TGI [23]: 2.81 µM
GI50 [24]: 5.01 µM
TGI [24]: > 100 µM
GI50 [25]: 10.2 µM
TGI [25]: > 100 µM
GI50 [26]: 10.7 µM
TGI [26]: > 100 µM
GI50 [27]: 0.489 µM
TGI [27]: > 100 µM
GI50 [28]: 20.6 µM
TGI [28]: > 100 µM
GI50 [29]: 4.89 µM
TGI [29]: > 100 µM
GI50 [30]: 2.99 µM
TGI [30]: 11.6 µM
GI50 [31]: 20.4 µM
TGI [31]: > 100 µM
GI50 [32]: 4.52 µM
TGI [32]: > 100 µM
GI50 [33]: 4.28 µM
TGI [33]: 62.5 µM
GI50 [34]: 12.3 µM
TGI [34]: > 100 µM
GI50 [35]: 3.3 µM
TGI [35]: 30.1 µM
GI50 [36]: 41.1 µM
TGI [36]: > 100 µM
GI50 [37]: 5.52 µM
TGI [37]: > 100 µM
GI50 [38]: 24.8 µM
TGI [38]: > 100 µM
GI50 [57]: 12.2 µM
TGI [57]: > 100 µM
GI50 [39]: 5.83 µM
TGI [39]: 90.7 µM
GI50 [40]: 17 µM
TGI [40]: > 100 µM
GI50 [59]: 6.43 µM
TGI [59]: > 100 µM
GI50 [41]: 5.31 µM
TGI [41]: 36.6 µM
GI50 [42]: 2.53 µM
TGI [42]: 33.7 µM
GI50 [43]: 15.2 µM
TGI [43]: > 100 µM
GI50 [44]: 4.13 µM
TGI [44]: > 100 µM
GI50 [45]: 19.2 µM
TGI [45]: > 100 µM
GI50 [46]: 1.73 µM
TGI [46]: > 100 µM
GI50 [47]: 4.37 µM
TGI [47]: 65.5 µM
GI50 [48]: 7.81 µM
TGI [48]: > 100 µM
GI50 [49]: 3.04 µM
TGI [49]: > 100 µM
GI50 [50]: > 100 µM
TGI [50]: > 100 µM
GI50 [51]: 4.16 µM
TGI [51]: > 100 µM
